How the values were obtained:
Type in all cases: cell-based
[1] = tested on: Strain B (mutation K103N in HIV reverse transcriptase); assay: cellular antiviral assay, HIV mutant strain B; conditions: for pEC50 B: strain B, K103N
Experimental: (§1) Because of the increasing emergence of drug resistant HIV strains, the present compounds were tested for their potency against clinically isolated HIV strains harboring several mutations. These mutations are associated with resistance to reverse transcriptase inhibitors and result in viruses that show various degrees of phenotypic cross-resistance to the currently commercially available drugs such as for instance AZT and delavirdine.
(§2) The antiviral activity of the compound of the present invention has been evaluated in the presence of wild type HIV and HIV mutants bearing mutations at the reverse transcriptase gene. The activity of the compounds is evaluated using a cellular assay and the residual activity is expressed in pEC50 values. The columns IIIB and A-G in the table list the pEC50 values against various strains IIIB, A-G. • Strain IIIB is wild type HIV-LAI strain • Strain A contains mutation Y181C in HIV reverse transcriptase, • Strain B contains mutation K103N in HIV reverse transcriptase, • Strain C contains mutation L100I in HIV reverse transcriptase, • Strain D contains mutation Y188L in HIV reverse transcriptase, • Strain E contains mutations L100I and K103N in HIV reverse transcriptase, • Strain F contains mutations K103N and Y181C in HIV reverse transcriptase, and • Strain G contains mutations L100I, K103N, Y181C, V179I E138G L214F, V278V/I • and A327A/V in HIV reverse transcriptase.

[2] = tested on: Strain F (mutations K103N and Y181C in HIV reverse transcriptase); assay: cellular antiviral assay, HIV mutant strain F; conditions: for pEC50 F: strain F, K103N and Y181C; for EC50: Human immunodeficiency virus 1, read-out: pEC50 F (converted)
Experimental: as §1, §2

[3] = tested on: Strain IIIB (wild type HIV-LAI strain); assay: cellular antiviral assay, wild type HIV; conditions: for pEC50 IIIB: strain IIIB, wild type HIV-LAI; for EC50: Human immunodeficiency virus 1, IIIB, read-out: pEC50 IIIB (converted)
Experimental: as §1, §2

[4] = tested on: Strain E (mutations L100I and K103N in HIV reverse transcriptase); assay: cellular antiviral assay, HIV mutant strain E; conditions: for pEC50 E: strain E, L100I and K103N; for EC50: Human immunodeficiency virus 1, read-out: pEC50 E (converted)
Experimental: as §1, §2

[5] = tested on: Strain C (mutation L100I in HIV reverse transcriptase); assay: cellular antiviral assay, HIV mutant strain C; conditions: for pEC50 C: strain C, L100I; for EC50: Human immunodeficiency virus 1, read-out: pEC50 C (converted)
Experimental: as §1, §2

[6] = tested on: Strain A (mutation Y181C in HIV reverse transcriptase); assay: cellular antiviral assay, HIV mutant strain A; conditions: for pEC50 A: strain A, Y181C; for EC50: Human immunodeficiency virus 1, read-out: pEC50 A (converted)
Experimental: as §1, §2

[7] = tested on: Strain D (mutation Y188L in HIV reverse transcriptase); assay: cellular antiviral assay, HIV mutant strain D; conditions: for pEC50 D: strain D, Y188L; for EC50: Human immunodeficiency virus 1, read-out: pEC50 D (converted)
Experimental: as §1, §2

[8] = tested on: Strain G (mutations L100I, K103N, Y181C, V179I E138G L214F, V278V/I and A327A/V in HIV reverse transcriptase); assay: cellular antiviral assay, HIV mutant strain G; conditions: for pEC50 G: strain G, L100I, K103N, Y181C, V179I E138G L214F, V278V/I and A327A/V
Experimental: as §1, §2

| Compound | pEC50 B [1] | pEC50 F [2] | pEC50 IIIB [3] | pEC50 E [4] | pEC50 C [5] | pEC50 A [6] | pEC50 D [7] | pEC50 G [8] | EC50 ([1]; Human immunodeficiency virus 1, read-out: pEC50 B (converted)) [nM] | EC50 [2] [nM] | EC50 [3] [nM] | EC50 [4] [nM] | EC50 [5] [nM] | EC50 [6] [nM] | EC50 [7] [nM] | EC50 ([8]; Human immunodeficiency virus 1, read-out: pEC50 G (converted)) [µM] |
| --- | --- | --- | --- | --- | --- | --- | --- | --- | --- | --- | --- | --- | --- | --- | --- | --- |
| Cc1cc(C=CC#N)ccc1N1CCc2c(C)nc(Nc3ccc(C#N)cc3)nc21 (mixture of isomers) [Compound 1] | 9 | 7.1 | 8.4 | 7.8 | 8.9 | 7.9 | 7.7 | 5.5 | – | – | – | – | – | – | – | – |
| Cc1nc(Nc2ccc(C#N)cc2)nc2c1CCN2c1c(F)cc(C=CC#N)cc1F (mixture of isomers) [Compound 2] | 9.2 | 7.4 | 9.1 | 9.1 | 9.3 | 7.9 | 8.4 | 5.7 | – | – | – | – | – | – | – | – |
| CCc1cc(C=CC#N)cc(CC)c1N1CCc2c(C)nc(Nc3ccc(C#N)cc3)nc21 (mixture of isomers) [Compound 3] | 8.5 | 7.7 | 7.9 | 8.5 | 8.7 | 7.8 | 7.8 | 5.7 | – | – | – | – | – | – | – | – |
| Cc1nc(Nc2ccc(C#N)cc2)nc2c1CCN2c1ccc(C=CC#N)cc1F (mixture of isomers) [Compound 5] | 7.9 | – | 7.7 | 6.9 | 7.8 | 6.3 | 6.6 | <4.6 | – | – | – | – | – | – | – | – |
| CCc1cc(C=CC#N)cc(Br)c1N1CCc2c(C)nc(Nc3ccc(C#N)cc3)nc21 (mixture of isomers) [Compound 6] | 8.3 | 7.5 | 8.3 | 8.3 | 8.4 | 7.7 | 7.5 | 5.5 | – | – | – | – | – | – | – | – |
| Cc1nc(Nc2ccc(C#N)cc2)nc2c1CCN2c1c(Cl)cc(C=CC#N)cc1Cl (mixture of isomers) [Compound 7a] | 8.7 | 7.7 | 8.7 | 8.6 | 9.1 | 7.9 | 7.7 | 5.4 | – | – | – | – | – | – | – | – |
| Cc1nc(Nc2ccc(C#N)cc2)nc2c1CCN2c1c(Cl)cc(C=CC#N)cc1Cl (mixture of isomers) [Compound 7b] | 9 | 7.7 | 9.1 | 8.5 | 9.1 | 8.1 | 7.7 | 5.4 | – | – | – | – | – | – | – | – |
| Cc1cc(C=CC#N)cc(Br)c1N1CCc2c(C)nc(Nc3ccc(C#N)cc3)nc21 (mixture of isomers) [Compound 9] | 8.4 | 7.7 | 8.9 | 7.8 | 8.7 | 8.3 | 8.4 | <4.6 | – | – | – | – | – | – | – | – |
| Cc1cc(C=CC#N)cc(C)c1N1CCc2c(C)nc(Nc3ccc(C#N)cc3)nc21 (mixture of isomers) [Compound 11] | 9 | 7.9 | 8.8 | 8.4 | 8.8 | 8.2 | 8.1 | 5.4 | – | – | – | – | – | – | – | – |
| CCc1cc(/C=C/C#N)ccc1N1CCc2c(C)nc(Nc3ccc(C#N)cc3)nc21 [Compound 4] | 9 | 7.6 | 8.4 | 8.1 | 9 | 8.3 | 7.9 | 5.1 | – | – | – | – | – | – | – | – |
| COc1cc(/C=C/C#N)cc(C)c1N1CCc2c(C)nc(Nc3ccc(C#N)cc3)nc21 [Compound 8] | 8.4 | 7.2 | 8.5 | 7.6 | 8.3 | 7.6 | 7.5 | 4.9 | – | – | – | – | – | – | – | – |
| Cc1nc(Nc2ccc(C#N)cc2)nc2c1CCN2c1c(F)cc(/C=C/C#N)cc1Cl [Compound 10] | 9.1 | 7.9 | 9.2 | 8.7 | 9.2 | 8.4 | 8 | 5.7 | – | – | – | – | – | – | – | – |
| Cc1nc(Nc2ccc(C#N)cc2)nc2c1CCN2c1c(F)cc(/C=C\C#N)cc1Cl [Compound 13] | 8.4 | 7 | 8.4 | 7.8 | 8.4 | 7.1 | 7 | 5.1 | – | – | – | – | – | – | – | – |
| Cc1cc(CCC#N)cc(C)c1N1CCc2c(C)nc(Nc3ccc(C#N)cc3)nc21 [Compound 15] | 8.6 | 8 | 9 | 8 | – | 8.2 | 7.3 | 5.7 | – | – | – | – | – | – | – | – |
| CCc1nc2cnc(Nc3ccc(C#N)cc3)nc2n1-c1c(C)cc(/C=C/C#N)cc1C [Compound 22] | – | – | – | – | – | – | – | – | 3.98 | 1580 | 3.98 | 3160 | 316 | 316 | 1580 | – |
| N#C/C=C/c1cc(F)c(-n2c(N)nc3cnc(Nc4ccc(C#N)cc4)nc32)c(Cl)c1 [Compound 27] | – | – | – | – | – | – | – | – | – | 200 | 20 | 631 | 79.4 | 79.4 | 501 | 6.31 |
| Cc1cc(/C=C/C#N)cc(C)c1-n1nnc2cnc(Nc3ccc(C#N)cc3)nc21 [Compound 29] | 8.8 | – | 9.1 | 7.1 | 8.3 | 7.8 | 7.7 | 5.4 | – | – | – | – | – | – | – | – |
